Tested on: HepG2 tumors
Experiment: Anti-tumor efficacy in HepG2-tumor bearing nude mice
Assay type: in vivo, nu/nu BALB/c nude mice
Settings: s.c. HepG2 tumors, i.v. 1 mg/kg dox equivalents every other day from day 2, tumor volume, FIG. 4
Method: Nude mice were inoculated s.c. with 4×10^6 HepG2 cells on day 0. On day 2, groups of five mice were injected intravenously with 1 mg/kg dox equivalents of D, DL or DLG. The control group received injections of saline (S). Injections were carried out every other day. The tumor size was measured weekly and the volume calculated using the formula 0.52×L×W×H. Each point represents the mean volume from each group of 5 mice.
Nude mice were inoculated s.c. with 4×10^6 HepG2 cells on day 0. On day 2, groups of five mice were injected intravenously with 1 mg/kg dox equivalents of D, DL or DLG. The control group received injections of saline. Injections were carried out every other day. All mice were sacrificed on day 35. The tumors were removed and weighted. Each column represents the mean ±s.d. (n=5). *p<0.05 statistically significant difference as compared to control (student's t-test).
Nude mice (body weight 20–25 g; 6–8 weeks) were inoculated subcutaneously (s.c.) with a suspension of HepG2 cells (4×10^6/mouse) on Day 0. On Day 2, groups of five mice were injected intravenously with 1 mg/kg equivalents of D, DL or DLG. The Control group received injections of saline. Injections were carried out every other day. Tumor volume was continuously monitored using a Vernier caliper. Measurements were taken weekly and volumes were calculated according to the formula (L×W×H×0.52). […]

COc1cccc2c1C(=O)c1c(O)c3c(c(O)c1C2=O)C[C@@](O)(C(=O)CO)C[C@@H]3O[C@H]1C[C@H](N)[C@H](O)[C@H](C)O1.Cl [D, doxorubicin hydrochloride]
tumor growth inhibition: about 40%
